Consider two compounds from article PMC9181543, “Lysosomal Exocytosis of Olivacine on the Way to Explain Drug Resistance in Cancer Cells” (International Journal of Molecular Sciences, 2022).

In one data set the test system is MCF-7 cells. Details: method as in PMID 11755121. The settings on record: 48 h exposure; cited from earlier work.
The next data set deals with CCRF/CEM cells. Also on record: method as in PMID 24898668. As to conditions: cited from earlier work.
For another data set, the system named is Saos-2 cells. Also on record: method as in PMID 12881704. As to conditions: cited from earlier work.
Data set [1] concerns A549, MCF-7, LoVo, LoVo/DX, CCRF/CEM, and NHDF cells. The experiment in a line: MTT assay, whole cell line panel. It counts as cell-based. As to conditions: Homo sapiens, range across all cell lines, read-out: IC50 range over the cell lines. On the procedure: The anticancer activity of tested compounds was assessed on five human cell lines selected from the panel of tumor cell lines recommended by the National Cancer Institute: A495 (lung carcinoma), CCRF/CEM (acute lymphoblastic leukemia), LoVo and LoVo/DX (two types of colorectal: non-resistant and resistant to doxorubicin), and MCF-7 (breast adenocarcinoma). In addition, the NHDF cell line (normal human dermal fibroblasts) was used to estimate cytotoxicity to noncancer cells. The A549, CCRF/CEM, LoVo, LoVo/DX, and MCF-7 cells were obtained from ECACC, and NHDF cells from LONZA, Belgium. The A549 and MCF-7 cells were grown in EMEM medium, CCRF/CEM cells in RPMI-1640, LoVo and LoVo/DX cells in DMEM/F-12, and NHDF cells in DMEM without phenol red. The cells were seeded in […] in the biological assay, as recommended by the National Cancer Institute. All culture media were supplemented with L-glutamine, penicillin, streptomycin, and 10% fetal bovine serum (FBS). […]
An assessment of the mitochondrial cell activity after applying tested compounds was carried out using the test MTT assay, recommended in the ISO 10993-5:2009 standard. […] After 30 min, absorbance at 570 nm in Victor2 microplate reader (PerkinElmer). Cell viability was determined as the IC50 ratio, i.e., the concentration of the compound in which the viability was reduced by half compared with the control.

In another data set the test system is NHDF cells. The experiment in a line: Cell morphology, microscopic observation, NHDF. Format: cell-based, human. The settings on record: NHDF normal cells, 24 h incubation. As for the experimental part: Olivacine, similar to ellipticine, is a compound with fluorescent properties. Therefore, by analyzing the intensity of fluorescence over time, it is possible to assess the cellular pharmacokinetics of the compounds. At the same time, cell morphology was also assessed. The cells were seeded into a 96-well plate and cultured for 24 h (37 °C, 5% CO2) for cell adhesion to the surface and regeneration. […] The culture plate was placed under a Juli microscope, and the device with the plate inside was put in the CO2 incubator. Pictures were taken every 15 min for 24 h. We have prepared software that allowed us to measure the fluorescence intensity of the indicated cells. Fluorescence analysis was performed for all images (every 15 min) during a period of rapid change in fluorescence intensity and less often at a later period when it stabilized. Three independent experiments were carried out, always analyzing 50 selected cells.

Values joined by “and” are separate entries in the source; they are usually repeats but may differ in a detail not shown here. Equal values may be shown once.

On to `Cc1c2ccncc2c(C)c2c1[nH]c1ccccc12` [Ellipticine], for which, in the data set on MCF-7 cells, the IC50 was 1.25 ± 0.13 µM. For the same compound, the cell cycle effect entry in the data set on CCRF/CEM cells is given as “stop the cell cycle in the G0/G1 phase”. Besides, the “concentration at which apoptosis was induced” value in the data set with Saos-2 cells is 8 µM and 10 µM.
Regarding `Cc1nccc2c(C)c3[nH]c4ccccc4c3cc12` [Olivacine, 1,5-dimethyl-6H-pyrido[4,3-b]carbazole], the IC50 in data set [1] is 12 to 26 µM. Further, the cell morphology result with NHDF cells (2 μM) was “did not negatively affect cell morphology”; with NHDF cells (5 μM), “normal”; in the data set on NHDF cells (20 μM), “only a few fibroblast cells have been disintegrated”.
